Columns and labels:
Details in all cases: 72 h
[1] = tested on: U2OS; test: drug sensitivity score (DSS) for viability; higher = more toxic; extreme values may be limits of the assay
[2] = tested on: Vero E6; test: as above
[3] = tested on: Calu-3; test: as above
[4] = tested on: HepG2; test: as above
[5] = tested on: Caco-2; test: as above
[6] = tested on: U2OS; test: relative viability EC50 (midpoint between 100% and the lowest measured viability); higher = less toxic
[7] = tested on: Vero E6; test: as above
[8] = tested on: HepG2; test: as above
[9] = tested on: Caco-2; test: as above
[10] = tested on: U2OS; test: cell viability relative to DMSO; higher = less toxic
[11] = tested on: Vero E6; test: as above
[12] = tested on: Calu-3; test: as above
[13] = tested on: HepG2; test: as above
[14] = tested on: Caco-2; test: as above
[15] = tested on: Calu-3; test: relative viability EC50 (midpoint between 100% and the lowest measured viability); higher = less toxic

| Compound | drug sensitivity score [1] | drug sensitivity score [2] | drug sensitivity score [3] | drug sensitivity score [4] | drug sensitivity score [5] | relative viability EC50 [6] | relative viability EC50 [7] | relative viability EC50 [8] | relative viability EC50 [9] | cell viability ([10]; 1 nM) | cell viability ([10]; 10 nM) | cell viability ([10]; 100 nM) | cell viability ([10]; 1000 nM) | cell viability ([10]; 10000 nM) | cell viability ([11]; 1 nM) | cell viability ([11]; 10 nM) | cell viability ([11]; 100 nM) | cell viability ([11]; 1000 nM) | cell viability ([11]; 10000 nM) | cell viability ([12]; 1 nM) | cell viability ([12]; 10 nM) | cell viability ([12]; 100 nM) | cell viability ([12]; 1000 nM) | cell viability ([12]; 10000 nM) | cell viability ([13]; 1 nM) | cell viability ([13]; 10 nM) | cell viability ([13]; 100 nM) | cell viability ([13]; 1000 nM) | cell viability ([13]; 10000 nM) | cell viability ([14]; 1 nM) | cell viability ([14]; 10 nM) | cell viability ([14]; 100 nM) | cell viability ([14]; 1000 nM) | cell viability ([14]; 10000 nM) | relative viability EC50 [15] |
| --- | --- | --- | --- | --- | --- | --- | --- | --- | --- | --- | --- | --- | --- | --- | --- | --- | --- | --- | --- | --- | --- | --- | --- | --- | --- | --- | --- | --- | --- | --- | --- | --- | --- | --- | --- |
| Oc1ccc2ccccc2c1Cc1c(O)ccc2ccccc12 [ST-1859] | 0 | 0 | 2.7 | 0.5 | 0.8 | > 10 µM | > 10 µM | > 10 µM | > 10 µM | 95.1% | 101% | 98.2% | 104% | 96.5% | 98.3% | 104% | 102% | 93% | 95.2% | 87.4% | 94.8% | 91.9% | 93.9% | 64.6% | 103% | 102% | 93.9% | 90.7% | 86.9% | 90.3% | 92.6% | 97.5% | 101% | 75.8% | – |
| Nc1nnc(Sc2ncc([N+](=O)[O-])s2)s1 [SU3327] | 6.5 | 6.1 | 1.8 | 9.2 | 5.9 | 2.64 µM | 2.83 µM | 1.59 µM | 2.66 µM | 103% | 92.7% | 98% | 93.4% | 0.1% | 101% | 101% | 98.8% | 95.6% | 1.4% | 99.7% | 104% | 99.2% | 100% | 62.7% | 100% | 104% | 96.1% | 76.2% | 0% | 105% | 104% | 103% | 94.2% | 8.8% | – |
| C=CC(=O)Nc1cccc(Oc2nc(Nc3ccc(N4CCN(C)CC4)cc3OC)ncc2Cl)c1 [WZ-4002] | 0 | 2 | 3.5 | 0 | 0.3 | > 10 µM | > 10 µM | > 10 µM | > 10 µM | 94.5% | 101% | 98.9% | 99.3% | 93.5% | 98.6% | 102% | 103% | 88.4% | 78.1% | 94.4% | 97% | 90.8% | 88.6% | 56.9% | 98.1% | 101% | 101% | 104% | 109% | 101% | 95.9% | 94.9% | 94.4% | 83.7% | – |
| Cc1cc(C)c(NC(=O)N(Cc2ccc3c(c2)Cc2ccccc2-3)C2CCCCCC2)c(C)c1 [YM-750] | 1 | 0 | 2.4 | 3.2 | 2.3 | > 10 µM | > 10 µM | – | – | 97.8% | 99.8% | 94.8% | 94.6% | 79.9% | 96.9% | 98.1% | 91.9% | 101% | 88.3% | 94.1% | 95.3% | 84.9% | 85.6% | 83.3% | 96.2% | 93.5% | 103% | 92.9% | 59.8% | 98.6% | 100% | 96.6% | 100% | 55% | > 10 µM |
| CC(C[N+](C)(C)C)OC(N)=O (stereo unspecified) [bethanechol] | 0 | 0 | – | 0 | 0 | > 10 µM | > 10 µM | > 10 µM | > 10 µM | 100% | 98.8% | 98.3% | 95.5% | 95.7% | 99.3% | 91.8% | 103% | 86.8% | 98.2% | – | – | – | – | – | 97.1% | 104% | 92.1% | 106% | 106% | 121% | 111% | 118% | 97.4% | 104% | – |
| C[C@@H]1CCC[C@H](C)N1NC(=O)c1ccc(Cl)c(S(N)(=O)=O)c1 [clopamide] | – | 0 | 0 | – | 0 | – | > 10 µM | – | > 10 µM | – | – | – | – | – | 99.4% | 102% | 104% | 99.4% | 105% | 102% | 106% | 104% | 104% | 95.1% | – | – | – | – | – | 94.5% | 104% | 110% | 105% | 104% | > 10 µM |
| Cc1onc(-c2ccccc2Cl)c1C(=O)N[C@@H]1C(=O)N2[C@@H]1SC(C)(C)[C@@H]2C(=O)O [cloxacillin] | – | 0 | – | 0 | 0 | – | > 10 µM | > 10 µM | > 10 µM | – | – | – | – | – | 94.5% | 97.6% | 99.7% | 98.2% | 106% | – | – | – | – | – | 107% | 116% | 104% | 90.8% | 109% | 102% | 99.7% | 98.5% | 109% | 95.8% | – |
| CN1[C@@H]2CC[C@H]1C[C@@H](OC1c3ccccc3CCc3ccccc31)C2 [deptropine] | 0 | 1.6 | 1.4 | 1 | 0.3 | > 10 µM | > 10 µM | > 10 µM | > 10 µM | 101% | 106% | 99.9% | 103% | 93% | 96.4% | 93.8% | 98.8% | 93.8% | 77.3% | 98.8% | 107% | 108% | 97.8% | 72.8% | 102% | 96.3% | 102% | 98.6% | 76.7% | 92.1% | 97.5% | 96.3% | 92.5% | 83.4% | – |
| CC[C@H](c1ccc(O)cc1)[C@@H](CC)c1ccc(O)cc1 [hexestrol] | 0 | 0 | – | 0 | 0 | > 10 µM | > 10 µM | > 10 µM | > 10 µM | 97.4% | 95.2% | 96.7% | 95.7% | 100% | 94% | 100% | 92.2% | 99% | 108% | – | – | – | – | – | 92.7% | 96.2% | 93.2% | 109% | 116% | 104% | 97.4% | 98.2% | 95% | 101% | – |
| N#Cc1ccc(C(c2ccc(C#N)cc2)n2cncn2)cc1 [letrozole] | 0 | 0 | 0 | – | 0 | > 10 µM | > 10 µM | – | > 10 µM | 104% | 105% | 99.6% | 107% | 101% | 106% | 106% | 114% | 99.9% | 105% | 97.1% | 101% | 101% | 99.1% | 99% | – | – | – | – | – | 106% | 107% | 96.2% | 105% | 97.3% | > 10 µM |
| Cc1ccsc1/C=C/C1=NCCCN1C [morantel] | 0 | 0 | 0 | – | 0 | > 10 µM | > 10 µM | – | > 10 µM | 98.2% | 104% | 97.2% | 100% | 96.9% | 108% | 104% | 110% | 101% | 96.8% | 94.5% | 111% | 91.1% | 101% | 96.9% | – | – | – | – | – | 94.6% | 86% | 72.7% | 94.6% | 84.2% | > 10 µM |
| Cc1ncc([N+](=O)[O-])n1CC(O)CN1CCOCC1 (stereo unspecified) [morinidazole] | 0 | 0 | – | 0 | 0 | > 10 µM | > 10 µM | > 10 µM | > 10 µM | 101% | 95.1% | 106% | 104% | 101% | 99.7% | 97.1% | 96.3% | 96.7% | 101% | – | – | – | – | – | 96.3% | 108% | 94.2% | 96.6% | 102% | 103% | 92% | 100% | 109% | 102% | – |
| CC(C)(Sc1cc(C(C)(C)C)c(O)c(C(C)(C)C)c1)Sc1cc(C(C)(C)C)c(O)c(C(C)(C)C)c1 [probucol] | 0 | 0 | 0 | – | 0 | > 10 µM | > 10 µM | – | > 10 µM | 104% | 96.1% | 101% | 96.2% | 98.7% | 100% | 101% | 106% | 98.1% | 97.8% | 98.6% | 106% | 99.9% | 103% | 96% | – | – | – | – | – | 104% | 96.3% | 106% | 102% | 102% | > 10 µM |
| C[C@@H](c1nc(-c2ccc(C#N)cc2)cs1)[C@](O)(Cn1cncn1)c1ccc(F)cc1F [ravuconazole] | 0.2 | 0 | – | 2.7 | 4.2 | > 10 µM | > 10 µM | 3.14 µM | – | 101% | 105% | 95.9% | 100% | 85.9% | 96.3% | 95.9% | 101% | 102% | 98.6% | – | – | – | – | – | 97.1% | 99.3% | 84.8% | 99.9% | 49.1% | 106% | 103% | 99.3% | 84% | 59.3% | – |
| O=C(O)C(O)Cc1ccc(O)c(O)c1 (stereo unspecified) [sodium-danshensu] | 0 | 0 | – | 0 | – | > 10 µM | > 10 µM | > 10 µM | – | 95% | 96.2% | 96.3% | 94.8% | 87.7% | 101% | 102% | 103% | 95.7% | 97.6% | – | – | – | – | – | 99.5% | 121% | 99.8% | 92% | 104% | – | – | – | – | – | – |
| C#CC1(OCC(O)CN2CCN(c3cccc(C(F)(F)F)c3)CC2)CCCCC1 (stereo unspecified) [terciprazine] | 0 | 0.1 | – | 0 | 1 | > 10 µM | > 10 µM | > 10 µM | > 10 µM | 100% | 98.6% | 99% | 96.8% | 95% | 106% | 93.6% | 104% | 99.4% | 87% | – | – | – | – | – | 96% | 110% | 110% | 91.1% | 90.9% | 102% | 92.2% | 101% | 86.1% | 87% | – |
| Cc1cccc(Nc2ccncc2S(=O)(=O)NC(=O)NC(C)C)c1 [torasemide] | – | 0 | 0.1 | – | 0 | – | > 10 µM | – | > 10 µM | – | – | – | – | – | 105% | 101% | 102% | 99.2% | 103% | 100% | 100% | 96.5% | 110% | 85.6% | – | – | – | – | – | 102% | 112% | 96.7% | 103% | 96.2% | > 10 µM |
